Consider four compounds from BindingDB's records for doi:10.1146/annurev.pa.30.040190.003221 (National Institute For Medical Research, 1990).

Assay [1] deals with T1, Muscarinic acetylcholine receptor M1 (Rattus norvegicus, UniProt P08482).
T1 sequence (P08482 whole entry): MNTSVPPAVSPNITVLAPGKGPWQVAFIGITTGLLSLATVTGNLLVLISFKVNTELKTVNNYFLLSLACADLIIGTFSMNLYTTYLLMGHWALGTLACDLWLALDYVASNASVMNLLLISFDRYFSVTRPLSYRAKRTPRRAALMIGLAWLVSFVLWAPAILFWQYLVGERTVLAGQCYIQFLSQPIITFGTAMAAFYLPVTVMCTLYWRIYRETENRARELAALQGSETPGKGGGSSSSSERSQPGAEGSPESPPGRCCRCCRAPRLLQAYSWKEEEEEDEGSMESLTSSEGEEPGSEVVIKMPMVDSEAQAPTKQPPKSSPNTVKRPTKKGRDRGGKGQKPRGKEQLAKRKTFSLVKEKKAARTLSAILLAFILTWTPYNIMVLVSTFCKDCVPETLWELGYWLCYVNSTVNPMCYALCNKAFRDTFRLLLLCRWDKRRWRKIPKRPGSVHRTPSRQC

For assay [2], the target named is Muscarinic acetylcholine receptor M3 (Rattus norvegicus, UniProt P08483).
Assay [3] deals with T2, Muscarinic acetylcholine receptor M2 (Rattus norvegicus, UniProt P10980).
T2 sequence (P10980 whole entry): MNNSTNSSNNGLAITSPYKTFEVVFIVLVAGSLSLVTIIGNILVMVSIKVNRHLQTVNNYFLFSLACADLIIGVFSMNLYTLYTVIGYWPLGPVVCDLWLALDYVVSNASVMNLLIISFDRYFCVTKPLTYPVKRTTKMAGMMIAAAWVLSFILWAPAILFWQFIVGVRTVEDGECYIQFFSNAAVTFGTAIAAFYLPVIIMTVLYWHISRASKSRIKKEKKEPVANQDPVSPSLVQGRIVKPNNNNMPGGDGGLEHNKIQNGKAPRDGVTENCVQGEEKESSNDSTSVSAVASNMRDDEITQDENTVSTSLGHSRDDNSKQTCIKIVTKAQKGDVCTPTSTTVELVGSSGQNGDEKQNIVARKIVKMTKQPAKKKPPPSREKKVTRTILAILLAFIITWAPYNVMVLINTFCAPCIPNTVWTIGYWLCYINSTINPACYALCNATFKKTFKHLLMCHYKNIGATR

Muscarinic acetylcholine receptor M3, sequence (P08483 whole entry): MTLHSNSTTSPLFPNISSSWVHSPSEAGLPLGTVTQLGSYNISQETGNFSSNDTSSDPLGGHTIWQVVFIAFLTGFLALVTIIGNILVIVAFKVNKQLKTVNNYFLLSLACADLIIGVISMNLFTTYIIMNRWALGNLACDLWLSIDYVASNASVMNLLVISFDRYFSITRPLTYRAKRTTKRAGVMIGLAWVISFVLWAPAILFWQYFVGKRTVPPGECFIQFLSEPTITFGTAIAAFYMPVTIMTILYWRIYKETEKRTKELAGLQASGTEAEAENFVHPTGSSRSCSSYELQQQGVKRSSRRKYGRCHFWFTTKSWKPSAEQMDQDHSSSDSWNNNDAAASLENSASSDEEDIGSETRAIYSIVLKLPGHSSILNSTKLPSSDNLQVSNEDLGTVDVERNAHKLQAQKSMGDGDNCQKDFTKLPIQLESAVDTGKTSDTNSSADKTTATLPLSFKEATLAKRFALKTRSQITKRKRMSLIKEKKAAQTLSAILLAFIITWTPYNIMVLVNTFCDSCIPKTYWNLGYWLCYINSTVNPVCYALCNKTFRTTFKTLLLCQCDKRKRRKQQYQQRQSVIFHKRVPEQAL

As a reminder, the Ki is a dissociation constant, usually derived from enzyme kinetics or from competition with a known ligand. Read a low Ki as a stronger hold on the target. In the case of `CCN(CC)CC1CCCCN1CC(=O)N1c2ccccc2C(=O)Nc2cccnc21` (centres undefined) [(AF-DX 116) 11-[2-(2-Diethylaminomethyl-piperidin-1-yl)-acetyl]-5,11-dihydro-benzo[e]pyrido[3,2-b][1,4]diazepin-6-one], the Ki in assay [1] amounted to 398 nM; in assay [2] it was 1260 nM.

Take `C[C@H]1OC(=O)C2C[C@H]3CCCC[C@@H]3[C@@H](/C=C/[C@@H]3CCC[C@H](C)N3C)C21` (some centres undefined) [HIMBACINE]: the Ki in assay [1] was 100 nM; in assay [3], 7.94 nM; in assay [2] it was 126 nM.

Take `CC(=O)N[C@H]1CO[C@H](COS(=O)(=O)O)[C@@H](O[C@@H]2O[C@H](C(=O)O)[C@@H](O[C@H]3O[C@H](CO)[C@@H](O[C@@H]4O[C@@H](C(=O)O)[C@@H](O)[C@H](O)[C@H]4OS(=O)(=O)O)[C@H](OS(=O)(=O)O)[C@H]3NS(=O)(=O)O)[C@H](O)[C@H]2OS(=O)(=O)O)[C@@H]1O` [CAS_9050-30-0]: the Ki turned out to be 12.6 nM in assay [1], 126 nM in assay [3] and 6.31 nM in assay [2].

For `COc1ccccc1CNCCCCCCNCCCCCCCCNCCCCCCNCc1ccccc1OC` [METHOCTRAMINE], affinity in assay [2] was put at a Ki of 316 nM.
